Laboratory results from ChEMBL document CHEMBL3580546, “Structure-activity study of N-((trans)-4-(2-(7-cyano-3,4-dihydroisoquinolin-2(1H)-yl)ethyl)cyclohexyl)-1H-indole-2-carboxamide (SB269652), a bitopic ligand that acts as a negative allosteric modulator of the dopamine D2 receptor” (J Med Chem, 2015).

Experiments:
[1] = target: D(2) dopamine receptor (Homo sapiens) (UniProt P14416); assay: Displacement of [3H]raclopride from wild type human dopamine D2L receptor expressed in FlpIn CHO cell membrane assessed as equilibrium dissociation constant after 3 hrs by MicroBeta counting analysis; assay type: cell membranes
Chain of D(2) dopamine receptor (Homo sapiens) (P14416 whole entry): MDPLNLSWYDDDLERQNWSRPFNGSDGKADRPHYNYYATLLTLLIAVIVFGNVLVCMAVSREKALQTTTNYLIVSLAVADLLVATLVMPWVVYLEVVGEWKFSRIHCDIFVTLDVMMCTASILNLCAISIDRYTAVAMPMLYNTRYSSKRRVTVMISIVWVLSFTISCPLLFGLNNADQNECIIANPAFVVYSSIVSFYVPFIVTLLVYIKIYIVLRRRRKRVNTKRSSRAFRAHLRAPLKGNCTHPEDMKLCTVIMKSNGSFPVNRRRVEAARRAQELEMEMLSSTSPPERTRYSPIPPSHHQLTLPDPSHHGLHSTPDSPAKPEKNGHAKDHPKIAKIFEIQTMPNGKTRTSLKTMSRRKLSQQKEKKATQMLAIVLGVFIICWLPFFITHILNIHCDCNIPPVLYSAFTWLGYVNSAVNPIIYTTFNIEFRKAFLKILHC

[2] = target: D(2) dopamine receptor (Homo sapiens) (UniProt P14416); assay: Negative allosteric modulator activity at wild type human dopamine D2L receptor expressed in FlpIn CHO […] assessed as ERK1/2 phosphorylation measured as equilibrium dissociation constant after 30 mins; assay type: cell-based
[3] = target: D(2) dopamine receptor (Homo sapiens) (UniProt P14416); assay: Binding affinity to human dopamine D2 receptor

Compound | Kb [1] | pKb [1] | Kb [2] | pKb [2] | Kb [3]
N#Cc1ccc2c(c1)CN(CC[C@H]1CC[C@H](NC(=O)c3nc4ccccc4[nH]3)CC1)CC2 | 81.3 nM | 7.09 | 174 nM | 6.76 | 
N#Cc1ccc2c(c1)CN(CCCCCCNC(=O)c1cc3ccccc3[nH]1)CC2 | 269 nM | 6.57 | 30.1 nM | 7.52 | 
N#Cc1ccc2c(c1)CN(CCCCNC(=O)c1cc3ccccc3[nH]1)CC2 | 158 nM | 6.8 | 81.2 nM | 7.09 | 
N#Cc1ccc2c(c1)CN(CC[C@H]1CC[C@H](NC(=O)c3ccc[nH]3)CC1)CC2 | 57.5 nM | 7.24 | 3.31 nM | 8.48 | 
O=C(N[C@H]1CC[C@H](CCN2CCc3ccc(F)cc3C2)CC1)c1cc2ccccc2[nH]1 | 245 nM | 6.61 | 1050 nM | 5.98 | 
N#Cc1ccc2c(c1)CN(CCCCCNC(=O)c1cc3ccccc3[nH]1)CC2 | 479 nM | 6.32 | 132 nM | 6.88 | 
N#Cc1ccc2c(c1)CN(CC[C@H]1CC[C@H](NC(=O)[C@H]3CCCN3)CC1)CC2 | 363 nM | 6.74 | 45.7 nM | 7.34 | 
O=C(N[C@H]1CC[C@H](CCN2CCc3ccc(C(F)(F)F)cc3C2)CC1)c1cc2ccccc2[nH]1 | 759 nM | 6.12 | 891 nM | 6.05 | 
N#Cc1ccc2c(c1)CN(CC[C@H]1CC[C@H](NC(=O)[C@@H]3CCCN3)CC1)CC2 | 23.4 nM | 7.63 | 27.5 nM | 7.56 | 
N#Cc1ccc2c(c1)CN(CC[C@H]1CC[C@H](NC(=O)c3cc4ccccc4o3)CC1)CC2 | 282 nM | 6.55 | 18.2 nM | 7.74 | 
O=C(N[C@H]1CC[C@H](CCN2CCc3ccc(Br)cc3C2)CC1)c1cc2ccccc2[nH]1 | 170 nM | 6.77 | 138 nM | 6.86 | 
N#Cc1ccc2c(c1)CNCC2 |  |  |  |  | 2500 nM
N#Cc1ccc2c(c1)CN(CC[C@H]1CC[C@H](NC(=O)C3=Cc4ccccc4C3)CC1)CC2 | 151 nM | 6.82 | 22.9 nM | 7.64 | 
N#Cc1ccc2c(c1)CN(CCCNC(=O)c1cc3ccccc3[nH]1)CC2 | 372 nM | 6.43 | 138 nM | 6.86 | 
O=C(N[C@H]1CC[C@H](CCN2CCc3ccc(Cl)cc3C2)CC1)c1cc2ccccc2[nH]1 | 148 nM | 6.83 | 2090 nM | 5.68 | 
CN(C(=O)c1cc2ccccc2[nH]1)[C@H]1CC[C@H](CCN2CCc3ccc(C#N)cc3C2)CC1 | 117 nM | 6.93 | 91.2 nM | 7.04 | 
N#Cc1ccc2c(c1)CN(CC[C@H]1CC[C@H](NC(=O)c3cc4cccnc4[nH]3)CC1)CC2 | 45.7 nM | 7.34 | 23.4 nM | 7.63 | 
O=C(N[C@H]1CC[C@H](CCN2CCc3ccccc3C2)CC1)c1cc2ccccc2[nH]1 | 295 nM | 6.53 | 87 nM | 7.06 | 
O=C(N[C@H]1CC[C@H](CCN2CCc3sccc3C2)CC1)c1cc2ccccc2[nH]1 | 2240 nM | 5.65 | 339 nM | 6.47 | 
O=C(N[C@H]1CC[C@H](CCN2CCCc3ccccc3C2)CC1)c1cc2ccccc2[nH]1 | 2510 nM | 5.6 | 2570 nM | 5.59 | 
N#Cc1ccc2c(c1)CN(CC[C@H]1CC[C@H](NC(=O)c3nc4ccccc4o3)CC1)CC2 | 263 nM | 6.58 | 18.2 nM | 7.74 | 
COc1ccccc1N1CCN(CC[C@H]2CC[C@H](NC(=O)c3cc4ccccc4[nH]3)CC2)CC1 | 3.4 nM | 8.41 | 0.257 nM | 9.59 | 
O=C(N[C@H]1CC[C@H](CCN2CCN(c3cccc(Cl)c3Cl)CC2)CC1)c1cc2ccccc2[nH]1 | 5.25 nM | 8.28 | 1.38 nM | 8.86 | 
Cn1c(C(=O)N[C@H]2CC[C@H](CCN3CCc4ccc(C#N)cc4C3)CC2)cc2ccccc21 | 151 nM | 6.82 | 72.4 nM | 7.14 | 
